Each structure is given as a SMILES string. “And” between values parts separate entries of the source, which are not always exact repeats. Identical values can stand only once. Results filed as inconclusive are left out.

For this test, the system named is nude mice, HT29 intrarenal xenograft, tumor weight T/C. Nature of the test: NCI In Vivo Anticancer Drug Screen. Data for tumor model HT29;CX-1 Human Adenocarcinoma (MER+) (intrarenal inoculation) in NU/NU Swiss (nude) mice. Particulars: endpoint: mean tumor weight change, higher = larger tumour. An outline of the steps:
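Compounds were given to mice carrying transplantable tumors; a vehicle-dosed group served as control. The endpoint measured in each group was compared as a T/C quotient.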

[1] abbreviates: dose: 75.0 mg/kg/injection, schedule: Q04DX004 (sc), vehicle: saline with Tween-80.
The mark [2] stands for this setting: dose: 300.0 mg/kg/injection, schedule: Q04DX004 (sc), vehicle: saline with Tween-80.
[3] abbreviates: dose: 50.0 mg/kg/injection, schedule: Q01DX010 (sc), vehicle: saline.
Where [4] appears, read: dose: 50.0 mg/kg/injection, schedule: Q04DX004 (sc), vehicle: saline with Tween-80.
[5] abbreviates: dose: 100.0 mg/kg/injection, schedule: Q04DX004 (sc), vehicle: saline with Tween-80.
Where [6] appears, read: dose: 200.0 mg/kg/injection, schedule: Q04DX004 (sc), vehicle: saline with Tween-80.
Setting [7] is: dose: 25.0 mg/kg/injection, schedule: Q04DX004 (sc), vehicle: Klucel (hydroxypropylcellulose) (HPC).
Where [8] appears, read: dose: 50.0 mg/kg/injection, schedule: Q04DX004 (sc), vehicle: Klucel (hydroxypropylcellulose) (HPC).
Setting [9] is: dose: 600.0 mg/kg/injection, schedule: Q04DX004 (sc), vehicle: saline with Tween-80.

Turning to `Nc1nc(/C=C(/O)c2ccccc2)c2ncn(C3OC(CO)C(O)C3O)c2n1` (centres undefined), the T/C runs as follows: (dose: 50.0 mg/kg/injection, schedule: Q04DX004 (sc), vehicle: distilled water + Tween-80) 52 % of control; (dose: 100.0 mg/kg/injection, schedule: Q04DX004 (sc), vehicle: distilled water + Tween-80) 70 % of control; (dose: 200.0 mg/kg/injection, schedule: Q04DX004 (sc), vehicle: distilled water + Tween-80) 155 % of control; (dose: 400.0 mg/kg/injection, schedule: Q04DX004 (sc), vehicle: distilled water + Tween-80) 80 % of control.
With `C[Si](C)(C)n1nnn(-c2ccccc2)c1=O`, the T/C (dose: 37.5 mg/kg/injection, schedule: Q04DX004 (sc), vehicle: saline with Tween-80) was 116 % of control; the T/C under setting [1] is 120 % of control; the T/C under setting [2] is 116 % of control.
As for `COc1cc(C)c2c(c1C=O)Oc1c(c(C)c(O)c3c1C(O)OC3=O)OC2=O` (centres undefined), the T/C was 68 % of control under setting [3] and 50 % of control (dose: 200.0 mg/kg/injection, schedule: Q01DX010 (sc), vehicle: saline).
For the compound `NC(=O)c1csc(C2OC(CO)C(O)C2O)n1` (centres undefined), the T/C (dose: 125.0 mg/kg/injection, schedule: Q04DX004 (sc), vehicle: water) is 119 % of control.
Turning to `O=C1N=C(Oc2ccccc2)SC1=O`, the T/C by setting is: under setting [4], 40 % of control; under setting [5], 76 % of control; under setting [6], 59 % of control; (dose: 400.0 mg/kg/injection, schedule: Q04DX004 (sc), vehicle: saline with Tween-80) 78 % of control.
In the case of `O=[Te]=O`, the T/C runs as follows: under setting [7], 170 % of control; under setting [8], 74 % of control.
Turning to `O=C(Nc1ccc(N=C=S)cc1Cl)c1cc(Cl)cc(Cl)c1O`, the T/C is, setting by setting: under setting [7], 123 % of control; under setting [8], 102 % of control; (dose: 200.0 mg/kg/injection, schedule: Q04DX004 (sc), vehicle: Klucel (hydroxypropylcellulose) (HPC)) 56 % of control.
In the case of `O=Cc1ccc([N+](=O)[O-])s1`, the T/C by setting is: (dose: 25.0 mg/kg/injection, schedule: Q01DX010 (sc), vehicle: saline with Tween-80) 166 % of control; (dose: 50.0 mg/kg/injection, schedule: Q01DX010 (sc), vehicle: saline with Tween-80) 176 % of control; (dose: 100.0 mg/kg/injection, schedule: Q01DX010 (sc), vehicle: saline with Tween-80) 97 % of control.
For the compound `CCC(C(=O)O)C(=O)O.[NH-]CC1CCCC[N-]1.[Pt+2]`, the T/C by setting is: (dose: 50.0 mg/kg/injection, schedule: Q04DX004 (sc), vehicle: saline) 113 % of control; (dose: 100.0 mg/kg/injection, schedule: Q04DX004 (sc), vehicle: saline) 96 % of control; (dose: 200.0 mg/kg/injection, schedule: Q04DX004 (sc), vehicle: saline) 79 % of control; (dose: 400.0 mg/kg/injection, schedule: Q04DX004 (sc), vehicle: saline) 59 % of control.
For `CC(=O)Nc1ccc(S(=O)(=O)CO)cc1`, the T/C was 73 % of control (dose: 225.0 mg/kg/injection, schedule: Q04DX004 (sc), vehicle: saline with Tween-80) and 57 % of control (dose: 450.0 mg/kg/injection, schedule: Q04DX004 (sc), vehicle: saline with Tween-80).
As to `O=C1C2(Cl)C3(Cl)C4(Cl)C(Cl)(Cl)C5(Cl)[C@]3(Cl)C1(Cl)[C@]5(Cl)C24Cl` (some centres undefined), the T/C (dose: 75.0 mg/kg/injection, schedule: Q04DX004 (sc), vehicle: Klucel (hydroxypropylcellulose) (HPC)) was 60 % of control.
For `N#Cc1cn(C2OC(CO)C(O)C2O)c2ncnc(N)c12` (centres undefined), the T/C (dose: 0.13 mg/kg/injection, schedule: Q01DX010 (sc), vehicle: saline) is 81 % of control and the T/C (dose: 0.25 mg/kg/injection, schedule: Q01DX010 (sc), vehicle: saline) was 171 % of control.
As for `Nc1ccc2nc3ccc(N)cc3[n+](-c3ccccc3)c2c1`, the T/C runs as follows: (dose: 9.0 mg/kg/injection, schedule: Q04DX004 (sc), vehicle: saline) 80 % of control; (dose: 18.0 mg/kg/injection, schedule: Q04DX004 (sc), vehicle: saline) 62 % of control; (dose: 36.0 mg/kg/injection, schedule: Q04DX004 (sc), vehicle: saline) 96 % of control; (dose: 72.0 mg/kg/injection, schedule: Q04DX004 (sc), vehicle: saline) 52 % of control.
On to `C/C(=N\N=C(/[Se])N1CC2CCC(CC2)C1)c1ccccn1`, for which the T/C was 60 % of control (dose: 6.25 mg/kg/injection, schedule: Q04DX004 (sc), vehicle: Klucel (hydroxypropylcellulose) (HPC)); 83 % of control (dose: 12.5 mg/kg/injection, schedule: Q04DX004 (sc), vehicle: Klucel (hydroxypropylcellulose) (HPC)); 81 % of control under setting [7]; 86 % of control under setting [8].
Consider `O=C(Nc1ccccc1C(=O)O)c1cc([N+](=O)[O-])cc([N+](=O)[O-])c1`, for which the T/C is, setting by setting: under setting [4], 91 % of control; under setting [5], 120 % of control; under setting [6], 119 % of control.
`CN1N=C(N)c2cn(C3OC(COP(=O)(O)O)C(O)C3O)c3ncnc1c23` (centres undefined): the T/C runs as follows: (dose: 25.0 mg/kg/injection, schedule: Q01DX010 (sc), vehicle: water) 156 % of control; (dose: 50.0 mg/kg/injection, schedule: Q01DX010 (sc), vehicle: water) 182 % of control.
With `Nc1cc2[nH]cnc2c(=O)[nH]1`, the T/C runs as follows: (dose: 25.0 mg/kg/injection, schedule: Q01DX010 (sc), vehicle: saline) 62 % of control; under setting [3], 112 % of control.
For `CCC(C)Nc1ccc(N)cc1` (centres undefined), the T/C reads like this: (dose: 2.25 mg/kg/injection, schedule: Q04DX004 (sc), vehicle: Klucel (hydroxypropylcellulose) (HPC)) 64 % of control; (dose: 4.5 mg/kg/injection, schedule: Q04DX004 (sc), vehicle: Klucel (hydroxypropylcellulose) (HPC)) 64 % of control; (dose: 9.0 mg/kg/injection, schedule: Q04DX004 (sc), vehicle: Klucel (hydroxypropylcellulose) (HPC)) 101 % of control.
On to `Cc1cc2nc3c(=O)[nH]c(=O)nc-3n(CC(O)C(O)C(O)C(O)CO)c2cc1C` (centres undefined), for which the T/C by setting is: under setting [9], 94 % of control; (dose: 1200.0 mg/kg/injection, schedule: Q04DX004 (sc), vehicle: saline with Tween-80) 78 % of control; (dose: 2400.0 mg/kg/injection, schedule: Q04DX004 (sc), vehicle: saline with Tween-80) 90 % of control.
On to `COC1CC(C)C(OC)C2=CC(=O)C=C(NC(=O)/C(C)=C/C=C\C(C)C(OC(N)=O)/C(C)=C\C(C)C1OC)C2=O` (centres undefined), for which the T/C (dose: 12.5 mg/kg/injection, schedule: Q04DX004 (sc), vehicle: saline + alcohol) was 99 % of control; the T/C (dose: 25.0 mg/kg/injection, schedule: Q04DX004 (sc), vehicle: saline + alcohol) is 73 % of control; the T/C (dose: 50.0 mg/kg/injection, schedule: Q04DX004 (sc), vehicle: saline + alcohol) is 53 % of control.
With `C[Si](C)(CCl)N[Si](C)(C)CCl`, the T/C is, setting by setting: under setting [1], 91 % of control; (dose: 150.0 mg/kg/injection, schedule: Q04DX004 (sc), vehicle: saline with Tween-80) 84 % of control; under setting [2], 101 % of control; under setting [9], 78 % of control.
Take `COc1cc(OC)c(OC)cc1/C=C\c1ccnc2ccccc12`: the T/C was 79 % of control (dose: 225.0 mg/kg/injection, schedule: Q04DX004 (sc), vehicle: Klucel (hydroxypropylcellulose) (HPC)); 110 % of control (dose: 450.0 mg/kg/injection, schedule: Q04DX004 (sc), vehicle: Klucel (hydroxypropylcellulose) (HPC)); 83 % of control (dose: 900.0 mg/kg/injection, schedule: Q04DX004 (sc), vehicle: Klucel (hydroxypropylcellulose) (HPC)); 67 % of control (dose: 1800.0 mg/kg/injection, schedule: Q04DX004 (sc), vehicle: Klucel (hydroxypropylcellulose) (HPC)).
In the case of `C=C(C)C(=O)OC1C/C(CO)=C\C(O)C/C(C)=C/C2OC(=O)C(=C)C21` (centres undefined), the T/C was 100 % of control (dose: 20.0 mg/kg/injection, schedule: Q04DX004 (sc), vehicle: saline + alcohol); 83 % of control (dose: 40.0 mg/kg/injection, schedule: Q04DX004 (sc), vehicle: saline + alcohol); 70 % of control (dose: 80.0 mg/kg/injection, schedule: Q04DX004 (sc), vehicle: saline + alcohol).
With `COc1cc2c(c(OC)c1OC)-c1ccc(OC)c(=O)cc1[C@@H](NC(C)=O)CC2`, the T/C (dose: 0.5 mg/kg/injection, schedule: Q01DX010 (sc), vehicle: saline) is 70 % of control.
With `CN(C)c1nc(N(C)C)nc(N(C)C)n1`, the T/C reads like this: (dose: 15.0 mg/kg/injection, schedule: Q01DX010 (sc), vehicle: saline with Tween-80) 90 % of control; (dose: 30.0 mg/kg/injection, schedule: Q01DX010 (sc), vehicle: saline with Tween-80) 81 % of control and 101 % of control and 222 % of control.
